Assay results reported in patent US12252492B2, “Substituted fused pyrrolo-diazepinones and uses thereof” (Northwestern University, priority 2018, dated 2025).

Tests used:
Type in all cases: cell-based, human
CCRF-CEM = assay: NCI60 one-dose screen, CCRF-CEM; conditions: CCRF-CEM (Leukemia); NCI 60 one-dose, 10^-5 M
Method: (§1) Anti-cancer activity screening of all compounds was performed by the NCI Developmental Therapeutics Program (DTP) through their NCI60 screening initiative. Assay details can be found at the website dtp.cancer.gov/discovery_development/nci-60/methodology.htm. Information from this website is reproduced here for convenience.
(§2) As of early 2007 all compounds submitted to the NCI 60 Cell screen are tested initially at a single high dose (10^-5 M) in the full NCI 60 cell panel. Only compounds which satisfy pre-determined threshold inhibition criteria in a minimum number of cell lines will progress to the full 5-dose assay. The threshold inhibition criteria for progression to the 5-dose screen was selected to efficiently capture compounds with anti-proliferative activity based on careful analysis of historical DTP screening data. The threshold criteria may be updated as additional data becomes available.
(§3) The One-dose data will be reported as a mean graph of the percent growth of treated cells and will be similar in appearance to mean graphs from the 5-dose assay. […]
(§4) Following drug addition, the plates are incubated for an additional 48 h at 37° C., 5% CO2, 95% air, and 100% relative humidity. […] Bound stain is subsequently solubilized with 10 mM trizma base, and the absorbance is read on an automated plate reader at a wavelength of 515 nm. […]

K-562 = assay: NCI60 one-dose screen, K-562; conditions: K-562 (Leukemia); NCI 60 one-dose, 10^-5 M
Method: as §1, §2, §3, §4

SNB-75 = assay: NCI60 one-dose screen, SNB-75; conditions: SNB-75 (CNS Cancer); NCI 60 one-dose, 10^-5 M
Method: as §1, §2, §3, §4

U251 = assay: NCI60 one-dose screen, U251; conditions: U251 (CNS Cancer); NCI 60 one-dose, 10^-5 M
Method: as §1, §2, §3, §4

LOX IMVI = assay: NCI60 one-dose screen, LOX IMVI; conditions: LOX IMVI (Melanoma); NCI 60 one-dose, 10^-5 M
Method: as §1, §2, §3, §4

ACHN = assay: NCI60 one-dose screen, ACHN; conditions: ACHN (Renal Cancer); NCI 60 one-dose, 10^-5 M
Method: as §1, §2, §3, §4

TK-10 = assay: NCI60 one-dose screen, TK-10; conditions: TK-10 (Renal Cancer); NCI 60 one-dose, 10^-5 M
Method: as §1, §2, §3, §4

| Compound | Growth Percent (CCRF-CEM) | Growth Percent (K-562) | Growth Percent (SNB-75) | Growth Percent (U251) | Growth Percent (LOX IMVI) | Growth Percent (ACHN) | Growth Percent (TK-10) |
| --- | --- | --- | --- | --- | --- | --- | --- |
| CC(=O)N1c2ccccc2NC2=C(C(=O)N(C)C2(C)C)C1c1ccccc1 (centres unmarked) [NUCC-60872] | 20.66% | 16.57% | −3.29% | 18.07% | 37.52% | 95.96% | 87.08% |
| CC(=O)N1c2ccccc2NC2=C(C(=O)N(Cc3ccccc3)C2(C)C)C1c1ccco1 (centres unmarked) [NUCC-608455] | 24.15% | 12.60% | 16.83% | 24.64% | 25.57% | 33.51% | 54.92% |
